# Test results taken from patent US4443619A, “Chlorocitric acids” (Hoffmann-La Roche Inc., priority 1981, dated 1984).
# Key:
# [1] = Body weight gain in 8 hour meal-fed Zucker rats (Example 18); assay type: in vivo, lean (Fa/-) and obese (fa/fa); conditions: 1.32 mmoles/kg b.i.d. oral, 6 days, mean ± S.E.
# Method: (§1) Lean (Fa/-) Zucker rats and obese (fa/fa) Zucker rats of both sexes were individually housed in wire-bottomed cages in a temperature-regulated (22° C.) light-controlled room (12 hr light, 6 a.m. to 6 p.m. and 12 hr dark, 6 p.m. to 6 a.m.). The animals were fed a high carbohydrate (70% glucose) diet ad libitum for 13 days, dosed with the indicated compounds by oral intubation for 9 days and allowed to recover for 3 days. The animals were then meal fed from 8 a.m. to 4 p.m. for a period of 5 days, following which they were continued on the same meal schedule for an additional 6 days. During the 6-day period, the animals were administered the indicated compounds by oral intubation at 8 a.m. and 12 p.m. Body weight gain during the 6-day period was determined.
# [2] = Food intake in dogs, pyramiding oral doses (Examples 26 and 27); assay type: in vivo, beagle dogs
# Method: Twelve beagle dogs of both sexes weighing 7.6-12.2 kg were used for this test. The test compounds were contained in gelatin capsules for oral administration to two dogs of each sex. The animals were weighed and food consumption calculated daily excluding weekends throughout the test period. Each animal received 800 grams of diet daily consisting of 400 grams of Wayne pellet dog food mixed with 400 ml distilled water. The animals received pyramiding oral doses of the test compound over the three week period. On Monday and Tuesday of the first week the animals were weighed and food consumption was recorded (control). The animals received 3 mg/kg on Wednesday and 10 mg/kg on Friday of the first week. Doses of 30, 100 and 300 mg/kg were administered on Monday, Wednesday and Friday respectively during the second week. A final dose of 1000 mg/kg was administered on Monday of the third week.
# Food intake was determined by the procedure by pyramiding doses described in Example 26.
# [3] = Comparative anorectic activity: food consumption in meal-fed rats (acute, Example 13); assay type: in vivo, Charles River female rats; conditions: 3 hr meal, mean ± S.E.
# Method: Charles River female rats (Charles River Breeding Laboratories, Wilmington, Mass.), weighing 150 to 175 g, were individually housed in wire-bottomed cages in a temperature-regulated (22° C.) light-controlled room (12 hr light, 6 a.m. to 6 p.m. and 12 hr dark, 6 p.m. to 6 a.m.). Animals were fasted 48 hr, then meal-fed the 70% glucose diet described by A. C. Sullivan, et al., J. Nutrition, 101, 265 (1971) from 8 to 11 a.m. Following 5 to 13 days alimentation on the meal-feeding regimen, rats were dosed with the appropriate compounds orally by intubation 1/2 hr before the 3 hr meal. Food cups were weighed immediately after the meal. The control group consists of 31 rats while each drug treated group consists of 5 to 12 rats.
# The G-70 diet consisted of 70% glucose, 23% vitamin-free casein, 5% Phillips and Hart salt mixture IV, 1% corn oil, 1% complete vitamin mixture, and 40 g/kg cellulose. To ensure complete uniformity, all diets were mixed with a twen-shell dry blender equipped with an itensifier bar (Patterson-Kelly Co., East Stroudsburg, Pa.).
# Fatty Acid Synthesis = assay: Fatty acid synthesis in pair-feeding experiments in rats (Example 24); assay type: in vivo, female rats of the Charles River CD strain
# Method: Female rats of the Charles River CD strain (Charles River Breeding Laboratories, Wilmington, Mass.) weighing 120-160 g (ca. […] old) were housed individually in wire-bottomed cages in a temperature-regulated (22 C.), light-controlled room (12 hour light 6 A.M.-6 P.M., and dark 6 P.M.-6 A.M.). They had free access to water and were fed a commercial diet (Purina Rodent Chow, Ralston Purina Co., St. Louis, Mo.) ad libitum for at least 1 week prior to the experiment. Animals were fasted 48 hours, then meal-fed a synthetic diet (G-70) daily from 8-11 A.M. for the remainder of the experiment. Food consumption and body weight were measured during the meal-feeding period. […] Food spillage was measured daily.
# Each group consisted of 8 to 10 (140 to 160 g) rats. Food intake was monitored for a 3 day period; the animals were dosed immediately before the 3 hr meal. Pair-fed animals were fed the amount of food which the drug treated groups ate on the previous days (days 2 and 3).
# Immediately after the 3 hour feeding period, rats were administered intravenously a 0.25 ml saline (pH 7.4 to 7.6) solution with the following composition: 12.3 mg alanine, 5 μCi [^14 C] alanine (specific activity=156 mCi/mmole), 30.6 mg-ketoglutarate (as an amine acceptor for transaminase) and 1 mCi [^3 H] water (specific activity=100 mCi/g). […] [^3 H] Water was employed to determine the total rate of lipogenesis, since tritium is incorporated into fatty acids independent of the source of carbon precursors. Animals were killed by decapitation and blood collected in centrifuge tubes 30 minutes after the radioactive pulse, unless otherwise indicated. The specific radioactivity of the body water of each rat was determined by counting a diluted serum aliquot in 10 ml following cocktail: toluene (2.41), 2-methoxyethanol (1.61), naphthalene (320 g), and BBOT (2,5-bis-2-(5-tert-butylbenzoxazolyl)-thiophene, 16 g). Liver, and small intestine was excised rapidly, weighed, and homogenized in 15 ml H2 O in a Virtis 45 Macro Homogenizer for 15 sec at ca. 30,000 rpm. Duplicate 3 ml aliquots of whole homogenates were saponified, extracted, and the absolute radioactivity (dpm) determined. Liver lipids were extracted totally or separated into fatty acids and cholesterol by anion exchange chromatography. It was determined by anion exchange chromatography that the total lipid extract of liver contained fatty acids (96-97%) and cholesterol (3-4%). Data are expressed as nmoles [^14 C] alanine or μ moles [^3 H] water converted into lipid/g tissue/30 minutes. The nmoles [^14 C] alanine were calculated according to the injected load of alanine, as reported previously by A. C. Sullivan et al., Arch. Biochem. and Biophys., 150, 183 (1972). The μ moles [^3 H] water were determined as described previously by A. C. […]
# [4] = Anorectic effect in 8 hour meal-fed Zucker rats (Example 17); assay type: in vivo, lean (Fa/-) and obese (fa/fa)
# Method: as §1, with “p.m.” for “p.m. to”, “Food cups were weighed immediately after” for “Body weight gain during”, “meal.” for “6-day period was determined.”
# Stomach Emptying = assay: Effect on stomach emptying ([14C]glucose load) in rats (Example 25); assay type: in vivo
# Method: Rats were trained to consume a 3 hr 70% glucose meal from 8 a.m. to 11 a.m. daily. On the experimental day, compounds were administered orally by intubation 30 min before a [^14 C]glucose load was given also by intubation. […] Sixty minutes later the rats were killed by decapitation; blood and stomachs were collected on ice.
# Data are expressed as follows: dpm×10^3 per ml of serum and dpm×10^3 per stomach.
# [5] = tested on: fatty acid and cholesterol syntheses; assay: Inhibition of fatty acid, lipid and cholesterol synthesis (summary statements)
# [6] = test day 20, no dose, (±) one animal, (+) and (-) two animals
# [7] = 0.33 mmoles/kg oral, 60 min after [14C]glucose load, mean ± S.E.
compound,measurement,setting,value
O=C(O)C[C@@](O)(C(=O)O)[C@@H](Cl)C(=O)O (relative stereo) [(±)-threo-Chlorocitric acid],Body Weight Gain,[1]; Fa/- lean,-22.9 ± 2.9 g
same,Body Weight Gain,[1]; fa/fa obese,-27.9 ± 4.6 g
same,"Food Consumption, % of control",[2]; [6],167 % of control
same,Food consumption,[2]; [6],800 g
same,Food consumption,"[2]; test days -2, -1, before dosing (control period)",479 ± 96 g
same,Food consumption,[3]; 0.08 mmoles/kg oral,6.4 ± 0.6 g
same,Food consumption,[3]; 0.17 mmoles/kg oral,6.8 ± 0.7 g
same,Food consumption,[3]; 0.33 mmoles/kg oral,5.7 ± 0.5 g
same,Food consumption,[3]; 0.66 mmoles/kg oral,3.9 ± 0.3 g
same,Food consumption,[3]; 1.32 mmoles/kg oral,3.1 ± 0.4 g
same,Food consumption,[3]; 2.63 mmoles/kg oral,3.8 ± 0.3 g
same,"Fatty Acid Synthesis, 3H2O converted","Fatty Acid Synthesis; 1.32 mmoles/kg, pair-fed control 25.6 ± 3.9",21.4 ± 1.6 μmoles ^3 H2 O converted/g liv
same,"Fatty Acid Synthesis, [14C]alanine converted","Fatty Acid Synthesis; 1.32 mmoles/kg, pair-fed control 639 ± 69",809 ± 67 nmoles [^14 C]alanine converte
same,Daily Food Consumption,"[4]; Fa/- lean, 1.32 mmoles/kg oral, treatment day 1",11.6 ± 0.8 g
same,Daily Food Consumption,"[4]; Fa/- lean, 1.32 mmoles/kg oral, treatment day 2",7.5 ± 0.8 g
same,Daily Food Consumption,"[4]; Fa/- lean, 1.32 mmoles/kg oral, treatment day 3",8.6 ± 1.3 g
same,Daily Food Consumption,"[4]; Fa/- lean, 1.32 mmoles/kg oral, treatment day 4",6.9 ± 1.0 g
same,Daily Food Consumption,"[4]; Fa/- lean, 1.32 mmoles/kg oral, treatment day 5",6.1 ± 0.7 g
same,Daily Food Consumption,"[4]; Fa/- lean, 1.32 mmoles/kg oral, treatment day 6",7.2 ± 1.0 g
same,Daily Food Consumption,"[4]; Fa/- lean, 1.32 mmoles/kg, day 0 (pretreatment)",12.3 ± 0.7 g
same,Daily Food Consumption,"[4]; fa/fa obese, 1.32 mmoles/kg oral, treatment day 1",13.1 ± 0.9 g
same,Daily Food Consumption,"[4]; fa/fa obese, 1.32 mmoles/kg oral, treatment day 2",7.8 ± 0.8 g
same,Daily Food Consumption,"[4]; fa/fa obese, 1.32 mmoles/kg oral, treatment day 3",6.6 ± 0.2 g
same,Daily Food Consumption,"[4]; fa/fa obese, 1.32 mmoles/kg oral, treatment day 4",5.9 ± 0.8 g
same,Daily Food Consumption,"[4]; fa/fa obese, 1.32 mmoles/kg oral, treatment day 5",4.6 ± 1.1 g
same,Daily Food Consumption,"[4]; fa/fa obese, 1.32 mmoles/kg oral, treatment day 6",5.3 ± 1.3 g
same,Daily Food Consumption,"[4]; fa/fa obese, 1.32 mmoles/kg, day 0 (pretreatment)",14.3 ± 0.8 g
"O=C(O)CC(O)(C(=O)O)C(O)C(=O)O (single isomer, unassigned) [hydroxycitric acid, reference compound]",delay in gastric emptying,Stomach Emptying; comparable doses,delayed gastric emptying
same,metabolic activity on lipid (fatty acid) and cholesterol syntheses,[5],inhibition of fatty acid and cholesterol syntheses
"O=C(O)C[C@@](O)(C(=O)O)[C@H](O)C(=O)O [Trisodium (-)-threo-hydroxycitrate, reference compound]","Serum, total per ml",Stomach Emptying; [7],4.5 ± 0.3 dpm × 10^3
same,"Stomach Contents, total per stomach",Stomach Emptying; [7],1973 ± 154 dpm × 10^3
same,Food consumption,[3]; 0.33 mmoles/kg oral,11.5 ± 0.7 g
same,Food consumption,[3]; 0.66 mmoles/kg oral,9.0 ± 0.6 g
same,Food consumption,[3]; 1.32 mmoles/kg oral,9.9 ± 1.0 g
same,Food consumption,[3]; 2.63 mmoles/kg oral,8.9 ± 0.8 g
same,"Fatty Acid Synthesis, 3H2O converted","Fatty Acid Synthesis; 2.63 mmoles/kg, pair-fed control 21.3 ± 2.3",14.4 ± 1.6 μmoles ^3 H2 O converted/g liv
same,"Fatty Acid Synthesis, [14C]alanine converted","Fatty Acid Synthesis; 2.63 mmoles/kg, pair-fed control 714 ± 86",279 ± 36 nmoles [^14 C]alanine converte
